From patent US12723063B2, “GIPR-agonist compounds” (Eli Lilly and Company, priority 2019, dated 2026)
*1 amine or outer side, *2 acyl side, *3 side chain or, on linkers, in order; H or OH if unused. Where a SMILES comes first, the peptide text is derived from it. Side-chain parts run from the residue outwards. [ ]: non-standard residue; d: D form. The star is where a group is joined. C20 diacid = O=C(O)CCCCCCCCCCCCCCCCCCC(=O)*; αMePhe(2-F) = C[C@](N)(Cc1ccccc1F)C(=O)O; γGlu = O=C(O)[C@H](CCC(=O)[*:2])N[*:1]; αMeF = C[C@](N)(Cc1ccccc1)C(=O)O; 4Pal = N[C@@H](Cc1ccncc1)C(=O)O; αMeL = CC(C)C[C@](C)(N)C(=O)O; AEEA = NCCOCCOCC(=O)O; Aib = CC(C)(N)C(=O)O

Experiments:
Test in all cases: cAMP functional assay (HTRF) in HEK293 cells in presence of 0.1% casein
Assay type in all cases: cell-based
[1] = biological target: T1, human GLP-1 receptor (GLP-1R) (Homo sapiens, UniProt P43220); conditions: HEK293 cells expressing human GLP-1R, geometric mean, read-out: hGLP1R cAMP Rel EC50 nM (SEM, n)
T1 construct: expressed in transfected cells; host or cells: HEK293

[2] = biological target: T2, human glucagon receptor (GcgR) (Homo sapiens, UniProt P47871); conditions: HEK293 cells expressing human GcgR, geometric mean, read-out: hGcgR cAMP Rel EC50 nM (SEM, n)
T2 construct: expressed in transfected cells; host or cells: HEK293

[3] = biological target: T3, human glucose-dependent insulinotropic peptide receptor (GIPR) (Homo sapiens, UniProt P48546); conditions: HEK293 cells expressing human GIPR, geometric mean, read-out: hGIPR cAMP Rel EC50 nM (SEM, n)
T3 construct: expressed in transfected cells; host or cells: HEK293
T3 sequence (P48546 22-466): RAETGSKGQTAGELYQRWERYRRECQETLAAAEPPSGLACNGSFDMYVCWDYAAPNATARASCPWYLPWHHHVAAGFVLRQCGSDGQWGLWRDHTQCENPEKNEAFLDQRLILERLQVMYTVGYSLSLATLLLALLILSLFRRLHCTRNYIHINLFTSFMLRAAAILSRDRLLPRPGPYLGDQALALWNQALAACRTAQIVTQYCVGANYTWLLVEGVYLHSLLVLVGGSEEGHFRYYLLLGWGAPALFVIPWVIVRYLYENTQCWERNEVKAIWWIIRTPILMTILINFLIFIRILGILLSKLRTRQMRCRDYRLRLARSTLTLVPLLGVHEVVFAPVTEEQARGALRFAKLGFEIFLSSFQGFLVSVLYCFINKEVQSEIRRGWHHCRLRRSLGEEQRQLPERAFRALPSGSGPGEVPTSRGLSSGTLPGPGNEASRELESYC

T1 sequence (P43220 24-463): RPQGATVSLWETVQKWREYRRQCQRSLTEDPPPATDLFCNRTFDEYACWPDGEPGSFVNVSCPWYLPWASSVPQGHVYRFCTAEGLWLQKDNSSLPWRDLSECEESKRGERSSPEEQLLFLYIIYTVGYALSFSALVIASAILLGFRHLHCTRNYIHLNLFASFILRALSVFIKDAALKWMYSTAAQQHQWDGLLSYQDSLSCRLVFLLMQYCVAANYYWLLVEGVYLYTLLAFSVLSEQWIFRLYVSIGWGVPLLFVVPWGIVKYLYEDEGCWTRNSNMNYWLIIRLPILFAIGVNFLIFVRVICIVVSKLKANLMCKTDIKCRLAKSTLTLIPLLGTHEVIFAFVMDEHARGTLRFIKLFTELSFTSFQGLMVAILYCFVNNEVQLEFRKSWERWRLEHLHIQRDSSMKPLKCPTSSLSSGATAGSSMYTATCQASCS
T2 sequence (P47871 26-477): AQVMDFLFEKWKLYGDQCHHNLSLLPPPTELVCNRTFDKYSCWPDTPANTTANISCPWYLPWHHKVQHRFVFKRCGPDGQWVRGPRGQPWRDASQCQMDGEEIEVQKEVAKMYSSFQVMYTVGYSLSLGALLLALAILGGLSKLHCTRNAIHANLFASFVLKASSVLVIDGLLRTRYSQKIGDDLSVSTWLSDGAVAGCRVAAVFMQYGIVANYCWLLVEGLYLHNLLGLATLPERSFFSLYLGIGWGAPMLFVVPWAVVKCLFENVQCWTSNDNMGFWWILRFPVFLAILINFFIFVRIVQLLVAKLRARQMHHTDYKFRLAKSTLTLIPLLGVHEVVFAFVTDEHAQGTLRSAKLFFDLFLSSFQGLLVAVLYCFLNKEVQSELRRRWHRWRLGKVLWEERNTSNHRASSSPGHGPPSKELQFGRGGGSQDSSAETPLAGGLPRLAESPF

Structure (SMILES)	EC50 [1] [nM]	EC50 [2] [nM]	EC50 [3] [nM]
CC[C@H](C)[C@H](NC(=O)[C@H](Cc1ccccc1)NC(=O)[C@@H](NC(=O)CNC(=O)[C@H](CCC(=O)O)NC(=O)C(C)(C)NC(=O)[C@@H](N)Cc1ccc(O)cc1)[C@@H](C)O)C(=O)N[C@@H](CO)C(=O)N[C@@H](CC(=O)O)C(=O)N[C@@H](Cc1ccc(O)cc1)C(=O)N[C@@H](CO)C(=O)N[C@H](C(=O)N[C@@](C)(CC(C)C)C(=O)N[C@@H](CC(C)C)C(=O)N[C@@H](CC(=O)O)C(=O)N[C@@H](CCCCN)C(=O)N[C@@H](CCCCNC(=O)COCCOCCNC(=O)COCCOCCNC(=O)CC[C@H](NC(=O)CCCCCCCCCCCCCCCCCCC(=O)O)C(=O)O)C(=O)N[C@@H](Cc1c[nH]cn1)C(=O)N[C@@H](CCC(N)=O)C(=O)NC(C)(C)C(=O)N[C@@H](CC(=O)O)C(=O)N[C@@H](Cc1ccccc1)C(=O)N[C@H](C(=O)N[C@@H](CCC(=O)O)C(=O)N[C@@H](Cc1ccc(O)cc1)C(=O)N[C@@H](CC(C)C)C(=O)N[C@@H](CC(C)C)C(=O)N[C@@H](CCC(=O)O)C(=O)N[C@@H](C)C(=O)NCC(=O)N1CCC[C@H]1C(=O)N[C@@H](CO)C(=O)N[C@@H](CO)C(=O)NCC(=O)N[C@@H](C)C(=O)N1CCC[C@H]1C(=O)N1CCC[C@H]1C(=O)N1CCC[C@H]1C(=O)N[C@@H](CO)C(N)=O)C(C)C)[C@@H](C)CC [Example 68] (H-Y[Aib]EGTFISDYSI[αMeL]LDKK([AEEA-AEEA-γGlu-C20 diacid])HQ[Aib]DFVEYLLEAGPSSGAPPPS-NH2)	> 5000	3030	0.0768
CC[C@H](C)[C@H](NC(=O)[C@H](CO)NC(=O)[C@H](Cc1ccc(O)cc1)NC(=O)[C@H](CC(=O)O)NC(=O)[C@H](CO)NC(=O)[C@@H](NC(=O)[C@](C)(Cc1ccccc1)NC(=O)[C@@H](NC(=O)CNC(=O)[C@H](CCC(=O)O)NC(=O)C(C)(C)NC(=O)[C@@H](N)Cc1ccc(O)cc1)[C@@H](C)O)[C@@H](C)CC)C(=O)N[C@@](C)(CC(C)C)C(=O)N[C@@H](CC(C)C)C(=O)N[C@@H](CC(=O)O)C(=O)N[C@@H](CCCCN)C(=O)N[C@@H](CCCCNC(=O)COCCOCCNC(=O)COCCOCCNC(=O)CC[C@H](NC(=O)CCCCCCCCCCCCCCCCCCC(=O)O)C(=O)O)C(=O)N[C@@H](Cc1c[nH]cn1)C(=O)N[C@@H](CCC(N)=O)C(=O)NC(C)(C)C(=O)N[C@@H](CCC(=O)O)C(=O)N[C@@H](Cc1ccccc1)C(=O)N[C@H](C(=O)N[C@@H](CCC(=O)O)C(=O)N[C@@H](Cc1ccncc1)C(=O)N[C@@H](CC(C)C)C(=O)N[C@@H](CC(C)C)C(=O)N[C@@H](C)C(=O)N[C@@H](C)C(=O)NCC(=O)N1CCC[C@H]1C(=O)N[C@@H](CO)C(=O)N[C@@H](CO)C(=O)NCC(=O)N[C@@H](C)C(=O)N1CCC[C@H]1C(=O)N1CCC[C@H]1C(=O)N1CCC[C@H]1C(=O)N[C@@H](CO)C(N)=O)C(C)C [Example 62] (H-Y[Aib]EGT[αMeF]ISDYSI[αMeL]LDKK([AEEA-AEEA-γGlu-C20 diacid])HQ[Aib]EFVE[4Pal]LLAAGPSSGAPPPS-NH2)	58.2	> 5000	0.0116
CC[C@H](C)[C@H](NC(=O)[C@H](Cc1ccccc1)NC(=O)[C@@H](NC(=O)CNC(=O)[C@H](CCC(=O)O)NC(=O)C(C)(C)NC(=O)[C@@H](N)Cc1ccc(O)cc1)[C@@H](C)O)C(=O)N[C@@H](CO)C(=O)N[C@@H](CC(=O)O)C(=O)N[C@@H](Cc1ccc(O)cc1)C(=O)N[C@@H](CO)C(=O)N[C@H](C(=O)N[C@@](C)(CC(C)C)C(=O)N[C@@H](CC(C)C)C(=O)N[C@@H](CC(=O)O)C(=O)N[C@@H](CCCCN)C(=O)N[C@@H](CCCCNC(=O)COCCOCCNC(=O)COCCOCCNC(=O)CC[C@H](NC(=O)CCCCCCCCCCCCCCCCCCC(=O)O)C(=O)O)C(=O)N[C@@H](Cc1c[nH]cn1)C(=O)N[C@@H](CCC(N)=O)C(=O)NC(C)(C)C(=O)N[C@@H](CC(=O)O)C(=O)N[C@@H](Cc1ccccc1)C(=O)N[C@H](C(=O)N[C@@H](CCC(=O)O)C(=O)N[C@@H](Cc1c[nH]c2ccccc12)C(=O)N[C@@H](CC(C)C)C(=O)N[C@@H](CC(C)C)C(=O)N[C@@H](C)C(=O)NCC(=O)NCC(=O)N1CCC[C@H]1C(=O)N[C@@H](CO)C(=O)N[C@@H](CO)C(=O)NCC(=O)N[C@@H](C)C(=O)N1CCC[C@H]1C(=O)N1CCC[C@H]1C(=O)N1CCC[C@H]1C(=O)N[C@@H](CO)C(N)=O)C(C)C)[C@@H](C)CC [Example 54] (H-Y[Aib]EGTFISDYSI[αMeL]LDKK([AEEA-AEEA-γGlu-C20 diacid])HQ[Aib]DFVEWLLAGGPSSGAPPPS-NH2)	> 5000	> 5000	0.054
CC[C@H](C)[C@H](NC(=O)[C@H](Cc1ccccc1)NC(=O)[C@@H](NC(=O)CNC(=O)[C@H](CCC(=O)O)NC(=O)C(C)(C)NC(=O)[C@@H](N)Cc1ccc(O)cc1)[C@@H](C)O)C(=O)N[C@@H](CO)C(=O)N[C@@H](CC(=O)O)C(=O)N[C@@H](Cc1ccc(O)cc1)C(=O)N[C@@H](CO)C(=O)N[C@H](C(=O)N[C@@](C)(CC(C)C)C(=O)N[C@@H](CC(C)C)C(=O)N[C@@H](CC(=O)O)C(=O)N[C@@H](CCCCN)C(=O)N[C@@H](CCCCNC(=O)COCCOCCNC(=O)COCCOCCNC(=O)CC[C@H](NC(=O)CCCCCCCCCCCCCCCCCCC(=O)O)C(=O)O)C(=O)N[C@@H](Cc1c[nH]cn1)C(=O)N[C@@H](CCC(N)=O)C(=O)NC(C)(C)C(=O)N[C@@H](CCC(=O)O)C(=O)N[C@@H](Cc1ccccc1)C(=O)N[C@H](C(=O)N[C@@H](CCC(=O)O)C(=O)N[C@@H](Cc1ccncc1)C(=O)N[C@@H](CC(C)C)C(=O)N[C@@H](CC(C)C)C(=O)N[C@@H](C)C(=O)NCC(=O)NCC(=O)N1CCC[C@H]1C(=O)N[C@@H](CO)C(=O)N[C@@H](CO)C(=O)NCC(=O)N[C@@H](C)C(=O)N1CCC[C@H]1C(=O)N1CCC[C@H]1C(=O)N1CCC[C@H]1C(=O)N[C@@H](CO)C(N)=O)C(C)C)[C@@H](C)CC [Example 52]	> 5000	337	0.0194
CC[C@H](C)[C@H](NC(=O)[C@H](CO)NC(=O)[C@H](Cc1ccc(O)cc1)NC(=O)[C@H](CC(=O)O)NC(=O)[C@H](CO)NC(=O)[C@@H](NC(=O)[C@](C)(Cc1ccccc1F)NC(=O)[C@@H](NC(=O)CNC(=O)[C@H](CCC(=O)O)NC(=O)C(C)(C)NC(=O)[C@@H](N)Cc1ccc(O)cc1)[C@@H](C)O)[C@@H](C)CC)C(=O)N[C@@H](C)C(=O)N[C@@H](CC(C)C)C(=O)N[C@@H](CC(=O)O)C(=O)N[C@@H](CCCCN)C(=O)N[C@@H](CCCCNC(=O)COCCOCCNC(=O)COCCOCCNC(=O)CC[C@H](NC(=O)CCCCCCCCCCCCCCCCCCC(=O)O)C(=O)O)C(=O)N[C@@H](Cc1c[nH]cn1)C(=O)N[C@@H](CCC(N)=O)C(=O)NC(C)(C)C(=O)N[C@@H](CC(=O)O)C(=O)N[C@@H](Cc1ccccc1)C(=O)N[C@H](C(=O)N[C@@H](CCC(=O)O)C(=O)N[C@@H](Cc1c[nH]c2ccccc12)C(=O)N[C@@H](CC(C)C)C(=O)N[C@@H](CC(C)C)C(=O)N[C@@H](CCC(=O)O)C(=O)N[C@H](C(=O)NCC(=O)N1CCC[C@H]1C(=O)N[C@@H](CO)C(=O)N[C@@H](CO)C(=O)NCC(=O)N[C@@H](C)C(=O)N1CCC[C@H]1C(=O)N1CCC[C@H]1C(=O)N1CCC[C@H]1C(=O)N[C@@H](CO)C(N)=O)[C@@H](C)O)C(C)C [Example 40] (H-Y[Aib]EGT[αMePhe(2-F)]ISDYSIALDKK([AEEA-AEEA-γGlu-C20 diacid])HQ[Aib]DFVEWLLETGPSSGAPPPS-NH2)	2330	> 5000	0.033
